Test results from US6610747B2, “Phenoxybenzylamine derivatives as SSRIs” (Pfizer Inc., priority 2000, dated 2003).

Biological target: T1, human serotonin transporter (hSERT) (Homo sapiens, UniProt P31645)
T1 construct: expressed in transfected cells; host or cells: HEK-293
Test: Inhibition of 3H-serotonin uptake in HEK-293 cells stably transfected with the human serotonin transporter (SRI)
Type: cell-based
Settings: HEK-293 cells expressing hSERT; 3H-5HT (50 nM); 5 min incubation; room temperature; read-out: serotonin re-uptake inhibition (SRI) IC50
Procedure: A number of compounds were tested for biological activity by their ability to inhibit the uptake of serotonin by human serotonin transporters as follows.
Human embryonic kidney cells (HEK-293) stably transfected with either the human serotonin transporter (hSERT), noradrenaline transporter (hNET) or dopamine transporter (hDAT) were cultured under standard cell culture techniques (cells were grown at 37° C. and 5% CO2 in DMEM-culture media (supplemented with 10% dialysed foetal calf serum (FCS), 2mM l-glutamine and 250 μg/ml geneticin)). Cells were harvested for the assay to yield a cell suspension of 750,000 cells/ml.
(i) Determination of Inhibitor Potency
All test compounds were dissolved in 100% DMSO and diluted down in assay buffer to give appropriate test concentrations. Assays were carried out in 96-well filter bottom plates. Cells (7500 cells/assay well) were pre-incubated in standard assay buffer containing either test compound, standard inhibitor or compound vehicle (1% DMSO) for 5 minutes. Reactions were started by addition of either ^3H-Serotonin, ^3H-Noradrenaline or ^3H-Dopamine substrates. All reactions were carried out at room temperature in a shaking incubator. Incubation times were 5 minutes for the hSERT and hDAT assays and 15 minutes for the hNET assay. Reactions were terminated by removal of the reaction mixture using a vacuum manifold followed by rapid washing with ice cold assay buffer. The quantity of ^3H-substrate incorporated into the cells was then quantified.
Assay plates were dried in a microwave oven, scintillation fluid added, and radioactivity measured.
(iii) Standard Assay Buffer Composition
Trizma hydrochloride (26 mM)
Note: The pH of the buffer was adjusted to 7.40 with 1M NaOH before addition of CaCl2 and pargyline.
(iv) Summary of Assay Parameters

T1 sequence (P31645 whole entry): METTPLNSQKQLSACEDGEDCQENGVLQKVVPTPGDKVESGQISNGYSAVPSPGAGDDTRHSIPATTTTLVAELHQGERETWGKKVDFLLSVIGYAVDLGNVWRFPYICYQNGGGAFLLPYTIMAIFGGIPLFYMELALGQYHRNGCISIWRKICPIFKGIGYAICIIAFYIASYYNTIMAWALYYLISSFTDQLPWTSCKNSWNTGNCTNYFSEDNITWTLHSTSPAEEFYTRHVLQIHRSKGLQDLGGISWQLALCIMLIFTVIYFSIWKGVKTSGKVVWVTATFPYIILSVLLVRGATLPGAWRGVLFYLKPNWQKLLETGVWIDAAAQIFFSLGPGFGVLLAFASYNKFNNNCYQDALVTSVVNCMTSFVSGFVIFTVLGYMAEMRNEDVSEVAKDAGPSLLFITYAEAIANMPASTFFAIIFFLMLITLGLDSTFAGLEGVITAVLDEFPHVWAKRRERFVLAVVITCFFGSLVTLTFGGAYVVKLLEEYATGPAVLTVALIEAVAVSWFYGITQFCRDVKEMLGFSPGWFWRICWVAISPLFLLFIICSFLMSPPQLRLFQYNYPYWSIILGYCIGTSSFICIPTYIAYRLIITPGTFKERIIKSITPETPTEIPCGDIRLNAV

Q: For `CN(C)Cc1ccccc1Oc1ccc2ncccc2c1` [Example 29, N,N-dimethyl-N-[2-(6-quinolinyloxy)benzyl]amine], which IC50 is on record?
A: Its IC50 is 2 nM.

Q: `CNCc1cc(C(=O)NC)ccc1Oc1ccc2c(c1)CCS2` [Example 62, 4-(2,3-dihydro-1-benzothien-5-yloxy)-N-methyl-3-[(methylamino)methyl]-benzamide] was tested. Which IC50 did it give?
A: Its IC50 is 3.7 nM.

Q: `CN(C)Cc1cc(S(N)(=O)=O)ccc1Oc1ccc2c(c1)CCS2` [Example 16, 4-(2,3-dihydro-1-benzothien-5-yloxy)-3-[(dimethylamino)methyl]-benzenesulfonamide] was tested. Which IC50 did it give?
A: The IC50 was 4.7 nM.
